Series [1] deals with green peach aphid (Myzus persicae). The series is described as follows: Myzus persicae spray test (Chinese cabbage leaf discs). It is filed as in vivo. The note with it: foliar, 144 h, read-out: efficacy in %. On the procedure:
Myzus persicae—Spray Test
Solvent: • 78 parts by weight of acetone • 1.5 parts by weight of dimethylformamide
Emulsifier: alkylaryl polyglycol ether
To produce a suitable preparation of active compound, 1 part by weight of active compound is dissolved using the specified parts by weight of solvent and made up with water containing an emulsifier concentration of 1000 ppm until the desired concentration is attained. To produce further test concentrations, the formulation is diluted with emulsifier-containing water.
Discs of Chinese cabbage leaves (Brassica pekinensis) infested by all stages of the green peach aphid (Myzus persicae) are sprayed with an active compound formulation of the desired concentration.
After 6 days, the efficacy in % is determined. 100% means that all the aphids have been killed; 0% means that no aphids have been killed.

The nature of series [2]: log P by HPLC on reversed-phase columns (OECD Guideline 117), [a] acidic pH 2.7, [b] neutral pH 7.8. The note with it: reversed-phase (C18) HPLC column. It is filed as physicochemical. Here is the method: The log P values were determined in accordance with OECD Guideline 117 (EC Directive 92/69/EEC) by HPLC (high-performance liquid chromatography) using reversed-phase (RP) columns (C18), by the following methods:
[a] The LC-MS determination in the acidic range is carried out at pH 2.7 with 0.1% aqueous formic acid and acetonitrile (contains 0.1% formic acid) as eluents; linear gradient from 10% acetonitrile to 95% acetonitrile.
[b] LC-MS determination in the neutral range is effected at pH 7.8 with 0.001 molar aqueous ammonium hydrogencarbonate solution and acetonitrile as eluents; linear gradient from 10% acetonitrile to 95% acetonitrile.
Calibration is carried out using unbranched alkan-2-ones (having 3 to 16 carbon atoms) with known log P values (log P values determined on the basis of the retention times by linear interpolation between two successive alkanones).

[3] abbreviates: acidic pH 2.7, read-out: logP[a].
The mark [4] stands for this setting: neutral pH 7.8, read-out: logP[b].

Like-named read-outs stand apart in the source and are kept apart here.

Turning to `Cc1cc(F)c(-c2ccc3nn(-c4cccnc4)cc3c2)cc1SCC(F)(F)F` [Example 49, 5-[2-Fluoro-4-methyl-5-(2,2,2-trifluoroethylsulphanyl)phenyl]-2-(3-pyridyl)indazole], the pest or weed control at 500 g/ha in series [1] was 90%. Further, the chromatographic logP in series [2] (setting [3]) amounted to 4.23; in series [2] (setting [4]), 4.11.

As to `Cc1ccc(-c2ccc3nn(-c4cccnc4)cc3c2)cc1SCC(F)(F)F` [Example 50, 5-[4-Methyl-3-(2,2,2-trifluoroethylsulphanyl)phenyl]-2-(3-pyridyl)indazole], the pest or weed control at 500 g/ha in series [1] stood at 100%. The chromatographic logP in series [2] (setting [3]) was 4.12; in series [2] (setting [4]) it was 4.07.

On to `Cc1ccc(-c2ccc3nn(-c4cccnc4)cc3c2)cc1[S+]([O-])CC(F)(F)F` (stereo not shown) [Example 53, 5-[4-Methyl-3-(2,2,2-trifluoroethylsulphinyl)phenyl]-2-(3-pyridyl)indazole], for which, in series [1], the pest or weed control at 500 g/ha stood at 90%. Also, the chromatographic logP turned out to be 2.72 in series [2] (setting [3]) and 2.68 in series [2] (setting [4]).

For `Cc1cc(C)c([S+]([O-])CC(F)(F)F)cc1-c1ccc2nn(-c3cccnc3)cc2c1` (stereo not shown) [Example 54, 5-[2,4-Dimethyl-5-(2,2,2-trifluoroethylsulphinyl)phenyl]-2-(3-pyridyl)indazole], in series [1], the pest or weed control at 500 g/ha is 90%. Moreover, the chromatographic logP in series [2] (setting [3]) was 2.99; in series [2] (setting [4]), 2.92.

For the molecule `FC(F)(F)c1cnn(-c2ccc3nn(-c4cccnc4)cc3c2)c1` [Example 55, 2-(3-Pyridyl)-5-[4-(trifluoromethyl)pyrazol-1-yl]indazole], the pest or weed control at 500 g/ha in series [1] turned out to be 90%. Besides, the chromatographic logP in series [2] (setting [3]) is 2.77; in series [2] (setting [4]) it was 2.74.

As to `Cn1cc(-c2ccc3nn(-c4cccnc4)cc3c2)cn1` [Example 58, 5-(1-Methylpyrazol-4-yl)-2-(3-pyridyl)indazole], the pest or weed control at 500 g/ha in series [1] was found to be 90%. Moreover, the chromatographic logP came out at 1.51 in series [2] (setting [3]) and 1.57 in series [2] (setting [4]).

For the molecule `c1ccc(-c2ccc3nn(-c4cccnc4)cc3c2)nc1` [Example 59, 5-(2-Pyridyl)-2-(3-pyridyl)indazole], the pest or weed control at 100 g/ha in series [1] stood at 90%. The chromatographic logP in series [2] (setting [3]) came to 1.13; in series [2] (setting [4]) it was 1.93.

For the molecule `c1cnc(-c2ccc3nn(-c4cccnc4)cc3c2)nc1` [Example 60, 2-(3-Pyridyl)-5-pyrimidin-2-yl-indazole], the pest or weed control at 500 g/ha in series [1] amounted to 90%. For the same molecule, the chromatographic logP turned out to be 1.72 in series [2] (setting [3]) and 1.73 in series [2] (setting [4]).

Turning to `Clc1cccc(-c2ccc3nn(-c4cccnc4)cc3c2)n1` [Example 61], the pest or weed control at 500 g/ha in series [1] was determined as 100%. Besides, the chromatographic logP in series [2] (setting [3]) worked out at 2.79; in series [2] (setting [4]) it was 2.8.

Regarding `CSCn1ccc(-c2ccc3nn(-c4cccnc4)cc3c2)n1` [Example 62], the pest or weed control at 500 g/ha in series [1] is 90%. The chromatographic logP in series [2] (setting [3]) was 1.97; in series [2] (setting [4]) it was 2.11.

For the molecule `CSCn1cc(-c2ccc3nn(-c4cccnc4)cc3c2)cn1` [Example 63], in series [1], the pest or weed control at 500 g/ha came out at 90%. Also, in series [2] (setting [3]), the chromatographic logP is 2.02.

As to `Cc1cccc(-c2ccc3nn(-c4cccnc4)cc3c2)n1` [Example 64], in series [1], the pest or weed control at 500 g/ha stood at 90%. In addition, the chromatographic logP in series [2] (setting [3]) stood at 1.06; in series [2] (setting [4]), 2.41.

Consider `Cc1ccnc(-c2ccc3nn(-c4cccnc4)cc3c2)c1` [Example 66], for which the pest or weed control at 500 g/ha in series [1] is 90%. Besides, the chromatographic logP in series [2] (setting [3]) stood at 0.97; in series [2] (setting [4]), 2.2.

On to `Clc1cccnc1-c1ccc2nn(-c3cccnc3)cc2c1` [Example 68], for which the pest or weed control at 500 g/ha in series [1] stood at 100%. For the same molecule, the chromatographic logP in series [2] (setting [3]) is 2.17; in series [2] (setting [4]), 2.21.

As for `Clc1ccnc(-c2ccc3nn(-c4cccnc4)cc3c2)c1` [Example 69], the pest or weed control at 500 g/ha in series [1] was 100%. Also, the chromatographic logP in series [2] (setting [3]) was determined as 2.62; in series [2] (setting [4]) it was 2.66.

As to `Cn1ccc(-c2ccc3nn(-c4cccnc4)cc3c2)n1` [Example 71], the pest or weed control at 500 g/ha in series [1] came to 90%. Further, in series [2] (setting [3]), the chromatographic logP is 1.58.

`CCn1cc(-c2ccc3nn(-c4cccnc4)cc3c2)cn1` [Example 73]: in series [1], the pest or weed control at 500 g/ha came to 90%. The chromatographic logP in series [2] (setting [3]) turned out to be 1.81; in series [2] (setting [4]) it was 1.82.

In the case of `C[S+]([O-])Cn1cc(-c2ccc3nn(-c4cccnc4)cc3c2)cn1` (stereo not shown) [Example 74], in series [1], the pest or weed control at 500 g/ha was 100%. Moreover, the chromatographic logP in series [2] (setting [3]) was 1.17; in series [2] (setting [4]), 1.19.

Take `CN(C(=O)c1ccc2nn(-c3cccnc3)cc2c1)C1CC1` [Example 75, N-Cyclopropyl-N-methyl-2-(pyridin-3-yl)-2H-indazole-5-carboxamide]: in series [1], the pest or weed control at 500 g/ha turned out to be 90%. Besides, the results for the chromatographic logP in series [2] (setting [3]) and in series [2] (setting [4]) were 1.47 and 1.5, respectively.

Consider `CCSc1cccnc1-c1ccc2nn(-c3cccnc3)cc2c1` [Example 77], for which the pest or weed control at 500 g/ha in series [1] turned out to be 90%. In addition, the chromatographic logP turned out to be 2.53 in series [2] (setting [3]) and 1.93 in series [2] (setting [4]).

`CCSc1cccc(-c2ccc3nn(-c4cccnc4)cc3c2)n1` [Example 79]: in series [1], the pest or weed control at 500 g/ha is 100%. Moreover, the chromatographic logP in series [2] (setting [3]) and in series [2] (setting [4]) was 3.57 each time.

On to `CCSc1ccc(-c2ccc3nn(-c4cccnc4)cc3c2)nc1` [Example 80], for which the pest or weed control at 500 g/ha in series [1] stood at 100%. In addition, the chromatographic logP in series [2] (setting [3]) stood at 2.87; in series [2] (setting [4]) it was 3.03.

On to `Cc1cc(C)c(SCC(F)(F)F)cc1NC(=O)c1ccc2nn(-c3cccnc3)cc2c1` [Example 81, N-{2,4-Dimethyl-5-[(2,2,2-trifluoroethyl)sulphanyl]phenyl}-2-(pyridin-3-yl)-2H-indazole-5-carboxamide], for which the pest or weed control at 500 g/ha in series [1] was 90%. The chromatographic logP in series [2] (setting [3]) is 3.15; in series [2] (setting [4]), 3.12.

Consider `Cc1ccc(NC(=O)c2ccc3nn(-c4cccnc4)cc3c2)cc1SCC(F)(F)F` [Example 82], for which the pest or weed control at 500 g/ha in series [1] is 90%. Further, the figures for the chromatographic logP in series [2] (setting [3]) and in series [2] (setting [4]) were 3.22 and 3.15, respectively.

Consider `CSCCNC(=O)c1ccc2nn(-c3cccnc3)cc2c1` [Example 85], for which the pest or weed control at 500 g/ha in series [1] was found to be 90%. Moreover, the chromatographic logP came to 1.45 in series [2] (setting [3]) and 1.5 in series [2] (setting [4]).

As for `CN(CC(F)F)C(=O)c1ccc2nn(-c3cccnc3)cc2c1` [Example 86], the pest or weed control at 500 g/ha in series [1] is 100%. For the same molecule, the chromatographic logP in series [2] (setting [3]) and in series [2] (setting [4]) was 1.55 throughout.

On to `O=C(c1ccc2nn(-c3cccnc3)cc2c1)N1CCOCC1` [Example 87], for which the pest or weed control at 500 g/ha in series [1] was found to be 100%. Besides, the chromatographic logP in series [2] (setting [3]) is 1.14; in series [2] (setting [4]), 1.16.

As to `O=C(c1ccc2nn(-c3cccnc3)cc2c1)N1CCCC1` [Example 88], the pest or weed control at 500 g/ha in series [1] turned out to be 100%. For the same molecule, the chromatographic logP in series [2] (setting [3]) is 1.43; in series [2] (setting [4]), 1.48.

For `CCN(CC)C(=O)c1ccc2nn(-c3cccnc3)cc2c1` [Example 89], the pest or weed control at 500 g/ha in series [1] was found to be 100%. Also, the chromatographic logP in series [2] (setting [3]) was found to be 1.63; in series [2] (setting [4]), 1.65.

Turning to `CN(CC(F)(F)F)C(=O)c1ccc2nn(-c3cccnc3)cc2c1` [Example 90], the pest or weed control at 500 g/ha in series [1] was found to be 90%. Besides, the chromatographic logP in series [2] (setting [3]) is 1.84; in series [2] (setting [4]) it was 1.87.

Turning to `Cc1cc(F)c(NC(=O)c2ccc3nn(-c4cccnc4)cc3c2)cc1SCC(F)(F)F` [Example 91], in series [1], the pest or weed control at 100 g/ha worked out at 90%. The chromatographic logP worked out at 3.22 in series [2] (setting [3]) and 3.12 in series [2] (setting [4]).

For the molecule `O=C(c1ccc2nn(-c3cccnc3)cc2c1)N1CCSCC1` [Example 92], the pest or weed control at 500 g/ha in series [1] was determined as 100%. Besides, the chromatographic logP came out at 1.5 in series [2] (setting [3]) and 1.58 in series [2] (setting [4]).

Regarding `Cc1ccc(NC(=O)c2ccc3nn(-c4cccnc4)cc3c2)cc1[S+]([O-])CC(F)(F)F` (stereo not shown) [Example 94, N-{4-Methyl-3-[(2,2,2-trifluoroethyl)sulphinyl]phenyl}-2-(pyridin-3-yl)-2H-indazole-5-carboxamide], the pest or weed control at 500 g/ha in series [1] came out at 90%. Moreover, the chromatographic logP in series [2] (setting [3]) and in series [2] (setting [4]) was 2.23 in each case.

As for `CS(=O)(=O)CCNC(=O)c1ccc2nn(-c3cccnc3)cc2c1` [Example 95], the pest or weed control at 500 g/ha in series [1] came out at 90%. Further, the values for the chromatographic logP in series [2] (setting [3]) and in series [2] (setting [4]) were 0.9 and 0.95, respectively.

With `CN(C(=O)CCS(C)(=O)=O)c1ccc2nn(-c3cncc(F)c3)cc2c1` [Example 128], in series [1], the pest or weed control at 500 g/ha was found to be 100%.

Take `CN(C(=O)CCS(C)(=O)=O)c1ccc2nn(-c3cccnc3)cc2c1` [Example 129]: in series [1], the pest or weed control at 500 g/ha came out at 90%.

Turning to `CC(CS(C)(=O)=O)C(=O)N(C)c1ccc2nn(-c3cccnc3)cc2c1` (stereo not shown) [Example 130], the pest or weed control at 500 g/ha in series [1] was 90%.

These data come from patent publication US10131649B2, “Bicyclic compounds as pest control agents” (BAYER CROPSCIENCE AKTIENGESELLSCHAFT, priority 2014, dated 2018).
